Measurements as given in patent US20150359854A1 (HUMAN MATRIX SCIENCES, LLC, priority 2012, published 2015).
Entries after “also recorded” stand apart in the source; their conditions may differ.

Columns and labels:
[1] = test system: fibronectin or collagen I; experiment: Immunodetection of deposited fibronectin and collagen I; type: cell-based, human; details: insulin-treated cultures of both cell types
[2] = target: Insulin-Like Growth Factor-1 Receptor (IGFR-1R) (Homo sapiens, UniProt P08069); details: cited from earlier work
[3] = test system: cultures derived from aortic adventitia, primarily fibroblasts; experiment: Elastic fiber deposition in cultures derived from aortic adventitia; type: cell-based, human
tropoelastin = experiment: Metabolically labeled tropoelastin in cell extracts and conditioned media (secretion); type: cell-based, human; details: 10 nmol/L insulin, 1 hour
Protocol: Cells were plated in 35-mm dishes at a density of 100,000 cells per dish and were grown to confluency. Two microcuries [3H]-valine per milliliter fresh medium supplemented with 2% FBS was added 2 hours before the indicated treatments. At the end of each experiment, the conditioned medium was collected and subjected to immunoprecipitation using anti-tropoelastin antibody. The cell layers were washed with PBS and incubated using radioimmunoprecipitation lysis buffer for 10 minutes on ice. After centrifugation, the supernatants were collected and subjected to immunoprecipitation using anti-tropoelastin antibody. […] Final results (counts per minute) reflecting the total amount of [3H]-valine-labeled insoluble elastin in individual cultures were normalized per their DNA contents (assessed using the Qiagen […] isolation) Tissue Kit) and expressed as percentage of control values. At the end of all treatments, cells from quadruplicate cultures in each experimental group were lysed using NP40 cell lysis buffer (Invitrogen Corp.). Thirty micrograms of protein extracts from each sample was suspended in standard sample buffer, resolved on 4% to 12% gradient SDS-PAGE gels, transferred to nitrocellulose membranes, and subjected to Western blotting using antibodies. At the end of indicated treatments, the cultured cells were lysed as described, and 300 μL aliquots of cell extracts containing […] were incubated at 4° C. for 3 hours with the aliquots of protein G bound DYNABEADS® (Invitrogen Corp.) that were conjugated with either rabbit polyclonal anti-tropoelastin, goat polyclonal anti-Glut10, or rabbit polyclonal anti-S-Gal antibodies. The beads carrying the final immunoprecipitation products were then washed with PBS, resuspended in sample buffer, and boiled for 5 minutes. The released proteins were then resolved on SDS-PAGE gel and subjected to Western blotting using indicated antibodies.

S-Gal/EBP = experiment: Association of tropoelastin with S-Gal/EBP chaperone (Western blot, co-immunoprecipitation, double immunostaining); type: cell-based, human; details: 20 minutes, 10 nmol/L insulin
Protocol: Cultures fixed for 30 minutes in cold 100% methanol were then blocked with 1% glycine for 15 minutes, followed by 2% bovine serum albumin with 0.1% Triton X-100 for another hour at room temperature. They were finally exposed for 1 hour to the mixture of 5 μg/mL polyclonal anti-S-Gal/EBP and 5 μg/mL monoclonal anti-tropoelastin antibodies. All cultures were then incubated for another hour with the mixture of fluorescein-conjugated and rhodamine-conjugated secondary antibodies. Nuclei were counterstained with DAPI. At the end of all treatments, cells from quadruplicate cultures in each experimental group were lysed using NP40 cell lysis buffer (Invitrogen Corp.). Thirty micrograms of protein extracts from each sample was suspended in standard sample buffer, resolved on 4% to 12% gradient SDS-PAGE gels, transferred to nitrocellulose membranes, and subjected to Western blotting using antibodies. At the end of indicated treatments, the cultured cells were lysed as described, and 300 μL aliquots of cell extracts containing […] were incubated at 4° C. for 3 hours with the aliquots of protein G bound DYNABEADS® (Invitrogen Corp.) that were conjugated with either rabbit polyclonal anti-tropoelastin, goat polyclonal anti-Glut10, or rabbit polyclonal anti-S-Gal antibodies. The beads carrying the final immunoprecipitation products were then washed with PBS, resuspended in sample buffer, and boiled for 5 minutes. The released proteins were then resolved on SDS-PAGE gel and subjected to Western blotting using indicated antibodies.

[4] = test system: human aortic SMCs (AoSMCs); experiment: Quantitative assay of [3H]-valine-labeled insoluble elastin; type: cell-based; details: 24-hour treatment, 0.5 to 100 nmol/L insulin
Protocol: Cells were plated in 35-mm dishes at a density of 100,000 cells per dish and were grown to confluency. Two microcuries [3H]-valine per milliliter fresh medium supplemented with 2% FBS was added 2 hours before the indicated treatments. At the end of each experiment, the conditioned medium was collected and subjected to immunoprecipitation using anti-tropoelastin antibody. The cell layers were washed with PBS and incubated using radioimmunoprecipitation lysis buffer for 10 minutes on ice. After centrifugation, the supernatants were collected and subjected to immunoprecipitation using anti-tropoelastin antibody. The remaining pellets containing extracellular matrix were scraped and boiled in 500 μL 0.1 N NaOH for 30 minutes to solubilize all matrix components except the cross-linked elastin. Final results (counts per minute) reflecting the total amount of [3H]-valine-labeled insoluble elastin in individual cultures were normalized per their DNA contents (assessed using the Qiagen DNEASY® (DNA isolation) Tissue Kit) and expressed as percentage of control values.

FoxO1 = FoxO1 binding to elastin gene promoter DNA probe (FRE) on DYNABEADS; type: cell-based, human
Protocol: Cells were then scraped, and their nuclear extracts were pre-pared using an isolation kit (Active Motif, Inc.). […] The equal molar amounts of both single-stranded DNA oligonucleotides were annealed in Tris-EDTA buffer (10 mmol/L Tris-HCl, 1 mmol/L EDTA (pH 8.0)) to form the double-stranded DNA probe. […] All preparations were subsequently incubated for 2 hours in 200 μL binding buffer (50 mmol/L KCl, 10% glycerol, 20 mmol/L HEPES (pH 7.9), 1 mmol/L MgCl2, 1 mmol/L DTT, 0.1 μg poly(DI-DC) (polydeoxyinosinic-deoxycytidylic), and proteinase inhibitors). After binding, the beads were washed four times in the same binding buffer, without poly(DI-DC). The bound proteins were resolved using 8% SDS-PAGE and probed using Western blotting with the anti-FoxO1 monoclonal antibody.

[5] = test system: human aortic SMCs (AoSMCs); experiment: Cell proliferation ([3H]-thymidine incorporation and Ki-67 immunodetection); type: cell-based; details: 48-hour AoSMC cultures, 0.5 to 100 nmol/L insulin
Protocol: Cells were plated in 35-mm culture dishes (100,000 cells per dish) containing DMEM supplemented with 5% FBS. The cultures were grown to 70% to 80% confluency and serum-starved overnight to synchronize the cell cycles. […] The total amount of [3H]-thymidine-labeled DNA in individual cultures was then assessed via scintillation counting. […] The cultures were counterstained with hematoxylin. In each experimental group, quadruplicate cultures were examined under 200× magnification. The percentage of positively stained cells was determined and averaged over the 30 fields examined.

[6] = after 2 hours [3H]-valine and BAPN, serum-free
[7] = after 3 hours [3H]-valine and β-aminopropionitrile, 2% FBS

For insulin, the “deposition of immunodetectable fibronectin or collagen I” value [1] is listed as “did not reveal any up-regulation”, the “lower affinity of IGFR-1R for insulin compared to the insulin receptor” value [2] is listed as 1000 × and the “deposition of new elastic fibers in aortic adventitia cultures” value ([3]; 1 nmol/L insulin, primarily fibroblasts) is listed as “stimulated deposition of new elastic fibers”. For the same substance, the “deposition of immunodetected elastic fibers in aortic media and adventitia cultures” value ([3]; 48-hour treatment with 10 nmol/L insulin) was “deposit multiple immunodetected elastic fibers”, the “immunodetected soluble tropoelastin in conditioned media vs untreated” value (tropoelastin; [6]) was “significantly more” and the “metabolically labeled soluble tropoelastin in cell extracts vs untreated” value (tropoelastin; [6]) was “significantly less”. For the same substance, the “less metabolically labeled tropoelastin in cell layer extracts than untreated controls” value (tropoelastin; [7]) was 66%±6%, the “more metabolically labeled tropoelastin in conditioned media than untreated counterparts” value (tropoelastin; [7]) was 94%±4% and the “S-Gal/EBP coimmunoprecipitated using anti-tropoelastin antibody vs untreated” value (S-Gal/EBP) was “significantly more”. For the same substance, the “basic levels of intracellular S-Gal/EBP or tropoelastin (Western blot)” value (S-Gal/EBP) was “did not demonstrate any increase; also recorded: do not demonstrate any increase”, the “co-localization of tropoelastin and S-Gal/EBP (double immunostaining)” value (S-Gal/EBP) was “reveal co-localization” and the “levels of metabolically labeled insoluble elastin” value [4] was “up-regulated”. The “binding of FoxO1 from nuclear extracts to elastin promoter FRE DNA probe” value (FoxO1; AoSMCs treated 30 minutes with 10 nmol/L insulin, or preincubated with LY294002) was “could not sequester FoxO1; also recorded: could not bind FoxO1”, the “reversal by insulin of FoxO1 binding to the probe in LY294002-treated cells” value (FoxO1; LY294002 preincubation, consecutive insulin) was “could not reverse this interaction” and the “basic proliferative rate ([3H]-thymidine incorporation, Ki-67)” value [5] was “did not induce any up-regulation”.
